From EP3360553B1, “MOLECULES AND PHARMACEUTICAL COMPOSITIONS, IN PARTICULAR FOR TREATING A GENETIC BLOOD DISORDER” (Université de La Réunion, priority 2017, dated 2018) come the findings set out here.

Data set [1] deals with laminin 521. Kind of data set: Red blood cell adhesion to laminin 521 under flow conditions. Type of data set: cell-based. To be noted: RBCs from sickle cell disease patients incubated with molecule at 0.1 mM for 30 min at room temperature, recombinant human laminin 521, 3 blood samples. The method, then: (§1) In the figures: • Figure 1: Adhesion of RBCs from sickle cell disease patients (N = 3) to laminin 521. Results are presented as a percentage of adhesion, 100% of adhesion being the adhesion level observed for RBCs incubated with buffer supplemented with DMSO alone. • Figure 2: Adhesion of RBCs from sickle cell disease patients to laminin 521 in the presence of increasing concentrations of Molecule 2 and Molecule 3. Results are presented as a percentage of adhesion, 100% of adhesion being the adhesion level observed for RBCs incubated without the molecules.
Red blood cell adhesion to laminin 521 was measured under flow conditions using Vena8 Endothelial+™ biochips (internal channel dimensions: length 20 mm, width 0.8 mm, height 0.12 mm) and ExiGo™ Nanopumps (Cellix Ltd, Dublin, Ireland). Three different solutions were prepared with either Molecule 1, Molecule 2 or Molecule 3 (0.1 mM) by solubilizing Molecule 1, 2 or 3 using DMSO. Recombinant human laminin 521 (BioLamina) at 5 ng/µl was immobilized on the internal surface of the biochips at 4°C overnight. RBCs from sickle cell disease patients were suspended at 5x10^7 cells/ml in Hanks balanced salt solution, without calcium chloride and magnesium sulfate (Sigma-Aldrich) supplemented with 0.4% BSA, and incubated with the solution comprising either Molecule 1, Molecule 2 or Molecule 3 at 0.1 mM or DMSO, for 30 min at room temperature (20°C) and perfused through the biochip channels for 10 min at a shear stress of 0.5 dyn/cm^2 followed by a washout at the same shear stress with the buffer alone for 30 min. Five minutes washouts with the Hanks/0.4% BSA buffer were performed at 1, 2, 3, 4 and 5 dyn/cm^2. After each wash, adherent RBCs were counted in 7 representative areas along the centerline of each channel using the AxioObserver Z1 microscope and ZEN analysis software (Carl Zeiss, Le Pecq, France) and the mean number of adherent RBCs was determined for each condition and each washout step (Figure 1). Images of the same 7 areas were obtained throughout each experiment. […]

The subject of the next data set is RBCs. The experiment in a line: Control of hemolysis (RBC concentration by CASY Cell Counter and Analyzer). Type of data set: cell-based. Conditions: 0.1 mM, 30 min incubation at room temperature; for RBCs/ml (x10^6): Hanks/0.4% BSA buffer, RBCs suspended at 6x10^6 cells/ml; for decrease of RBC concentration compared to vehicle (DMSO) alone: result in words. On the procedure: (§2) At the end of the 30 min of incubation with the molecules, the number of RBC for the control of hemolysis was measure by using CASY® Cell Counter and Analyzer.
(§3) For hemolysis assays, RBCs were suspended at 6x10^6 cells/ml in the Hanks/0.4% BSA buffer and the concentration measured accurately using the CASY® Cell Counter and Analyzer. RBCs were then incubated with the solution comprising either Molecule 1, Molecule 2 or Molecule 3 at 0.1 mM or DMSO, for 30 min at room temperature. After this incubation time cell concentration was measured again using CASY® Cell Counter and Analyzer (Table 1). If hemolysis occurs during this incubation time it will be reflected by a decrease in the RBC concentration.

Experiment in data set [2]: as above
Type of data set: cell-based. Conditions: red blood cells; 0.1 mM, 30 min incubation at room temperature; compared to vehicle (DMSO); read-out: decrease of the RBC concentration. The method, then:
as §2, §3

Data set [3] relates to laminin 521. The experiment in a line: Dose effect in the RBC adhesion assay to laminin 521. Type of data set: cell-based, human. Conditions: 50, 100 and 200 µM; RBCs from sickle cell disease patients; same conditions as Example 1. On the procedure:
as §1
Red blood cell adhesion to laminin 521 was measured under flow conditions using Vena8 Endothelial+™ biochips (internal channel dimensions: length 20 mm, width 0.8 mm, height 0.12 mm) and ExiGo™ Nanopumps (Cellix Ltd, Dublin, Ireland). Three different solutions were prepared with either Molecule 1, Molecule 2 or Molecule 3 (0.1 mM) by solubilizing Molecule 1, 2 or 3 using DMSO. Recombinant human laminin 521 (BioLamina) at 5 ng/µl was immobilized on the internal surface of the biochips at 4°C overnight. […] After each wash, adherent RBCs were counted in 7 representative areas along the centerline of each channel using the AxioObserver Z1 microscope and ZEN analysis software (Carl Zeiss, Le Pecq, France) and the mean number of adherent RBCs was determined for each condition and each washout step (Figure 1). […]

As for `CCC(=O)N1CCc2ccc(OCc3nc(C(=O)NCc4ccccc4)co3)cc2C1c1ccc(C)cc1` (centres unmarked) [Molecule 1], the “RBC adhesion to laminin” value in the data set on laminin 521 [1] is given as “not”. For the same molecule, in the data set on RBCs, the “RBCs/ml (x10^6)” value is reported as 6.04 x10^6 RBCs/ml and the “decrease of RBC concentration compared to vehicle (DMSO) alone” value is “no decrease”.
In the case of `Cc1c(CC(=O)NC(C(=O)O)c2ccccc2)c(=O)oc2c(C)c3oc4c(c3cc12)CCCC4` (centres unmarked) [Molecule 2], the “RBC adhesion to laminin” value with laminin 521 [1] was “inhibited”. Further, in data set [2], the hemolysis at 0.5 h, 100 µM was under 10%. Further, in the data set on RBCs, the “RBCs/ml (x10^6)” value is 5.55 x10^6 RBCs/ml. For the same molecule, in the data set with laminin 521 [3], the “inhibition of RBC adhesion to laminin with increasing concentrations” value is “increasing inhibition”.
Turning to `O=S(=O)(O)CCCn1c(=NN=Cc2c(O)ccc3ccccc23)sc2ccccc21` [Molecule 3], in the data set on laminin 521 [1], the “RBC adhesion to laminin” value is reported as “inhibited”. In the data set with RBCs, the “RBCs/ml (x10^6)” value is 6.02 x10^6 RBCs/ml and the “decrease of RBC concentration compared to vehicle (DMSO) alone” value is “no decrease”. For the same molecule, the “inhibition of RBC adhesion to laminin with increasing concentrations” value in the data set on laminin 521 [3] is listed as “increasing inhibition”.
